Measurements reported in patent US20100143386A1, “FGFR4 Promotes Cancer Cell Resistance in Response to Chemotherapeutic Drugs” (Max-Planck-Gesellschaft zur foerderung der Wissenschaften, …, priority 2006, published 2010).

What was measured:
Bcl-xl expression = details: MCF7-FGFR4 cells, 10 μM U0126 for 6 hours and 12 hours
Procedure: RNA was isolated using the RNeasy Mini Kit (Qiagen, Hilden, Germany) and reversely transcribed into cDNA using the AMV reverse transcriptase (Roche, Mannheim, Germany) and OligodT-Primer (Gibco, Germany). The RNA and cDNA concentration was measured using the NanoDrop ND1000 (PeqLab, Erlangen, Germany) system. […] PCR products were subjected to electrophoresis on a 2% agarose gel and DNA was visualized by ethidium bromide staining.

[1] = system: Fgfr4 mediated downstream signalling (p-Erk); test: FGF19 induced MAPK activation (P-ERK immunoblot) in breast cancer cell lines; type: cell-based; details: BT-474, MDA-MB-361 and ZR75-1 starved 48 h; compared to not stimulated control cells
Procedure: Secondary HRP-conjugated antibodies were goat anti-mouse (Sigma, Taufkirchen, Germany) and goat anti-rabbit (Biorad, Munich, Germany).
Cell cultures were washed with PBS and incubated at 4° C. with lysis buffer (50 mM HEPES/NaOH, pH 7.5, 150 mM NaCl, 1 mM EDTA, 10% glycerol and 1% Triton X-100) supplemented with phosphatase and protease inhibitors (10 mM sodium pyrophosphate, 1 mM PMSF, 2 mM sodium orthovanadate, 10 μg/ml aprotinin). Cellular debris was removed by centrifugation. Protein concentration measurements were performed using the Micro-BCA-Protein-Assay Kit from Pierce (Bonn, Germany). For immunoprecipitations, whole-cell lysates were combined with antibody and 30 μl of protein A- or G-sepharose slurry (GE Healthcare). The samples were incubated for 3 h on a rotation wheel at 4° C. The precipitates were washed three times with HNTG buffer (20 mM HEPES/NaOH, pH 7.5, 150 mM NaCl, 10% glycerol, 0.1% Triton X-100 and 10 mM sodium pyrophosphate) suspended in 3×SDS sample buffer, boiled for 3 min and subjected to SDS-PAGE. For Western blot analysis, proteins were transferred to nitrocellulose membranes and incubated with the appropriate antibodies. Signals were developed via an enhanced chemiluminescence detection system (ECL, Perkin Elmer, Wellesley, Mass.). Before reprobing, membranes were stripped with 65 mM Tris/HCl pH 6.8 buffer containing 2% SDS at 50° C. for 1 h.

Row | Compound | Bcl-xl expression (semiquantitative PCR) (Bcl-xl expression) | p-Erk-levels on FGF19 stimulation [1]
1 | N#CC(=C(/N)Sc1ccccc1N)/C(C#N)=C(\N)Sc1ccccc1N [U0126] | abolished | –
2 | FGF19: specific ligand of Fgfr4, FGF-Ligands purchased from TEBU | – | increased
